Assay results: ChEMBL document CHEMBL3865792, “Antioxidant and antitumor activity of trolox, trolox succinate, and α-tocopheryl succinate conjugates with nitroxides” (Eur J Med Chem, 2016)

Test system: not listed separately
Experiment: Genotoxicity in Escherichia coli PQ37 expressing lacZ gene assessed as ratio of inducible beta-galactosidase activity to alkaline phosphatase activity at 3 mM after 2 hrs by SOS-chromotest relative to control
Assay type: toxicity
Details: Escherichia coli PQ37 cells expressing lacZ gene, read-out: FC

SMILES	fold induction at 2 h, 3000 µM
Cc1c(C)c2c(c(C)c1O)CCC(C)(C(=O)O)O2 (centres undefined) [TROLOX]	1

Test system: Salmonella typhimurium
Experiment: Genotoxicity in Salmonella typhimurium TA102 harboring […] mutant assessed as frequency of reversion from histidine auxotrophy to prototrophy at 30 mM after 48 hrs by Ames test (reference value: 209 +/- 10 No _unit)
Assay type: toxicity, organism-based
Details: salmonella enterica subsp. enterica serovar typhimurium, 30000 µM

SMILES	Activity
Cc1c(C)c2c(c(C)c1O)CCC(C)(C(=O)O)O2 (centres undefined) [TROLOX]	230

Test system: Salmonella enterica subsp. enterica serovar Typhimurium
Experiment: Antioxidant activity in Salmonella typhimurium TA102 harboring […] mutant assessed as inhibition of t-BuO2H-dependant mutant formation at 0.3 uM preincubated with compound followed by t-BuO2H addition after 48 hrs by Ames test
Assay type: functional
Details: not given

SMILES	inhibition
Cc1c(C)c2c(c(C)c1O)CCC(C)(C(=O)O)O2 (centres undefined) [TROLOX]	8.8%

Test system: Salmonella enterica subsp. enterica serovar Typhimurium
Experiment: Antioxidant activity in Salmonella typhimurium TA102 harboring […] mutant assessed as inhibition of t-BuO2H-dependant mutant formation at 3 uM preincubated with compound followed by t-BuO2H addition after 48 hrs by Ames test
Assay type: functional
Details: not given

SMILES	inhibition
Cc1c(C)c2c(c(C)c1O)CCC(C)(C(=O)O)O2 (centres undefined) [TROLOX]	14.5%

Test system: Salmonella enterica subsp. enterica serovar Typhimurium
Experiment: Antioxidant activity in Salmonella typhimurium TA102 harboring […] mutant assessed as inhibition of t-BuO2H-dependant mutant formation at 30 uM preincubated with compound followed by t-BuO2H addition after 48 hrs by Ames test
Assay type: functional
Details: not given

SMILES	inhibition
Cc1c(C)c2c(c(C)c1O)CCC(C)(C(=O)O)O2 (centres undefined) [TROLOX]	4.7%

Test system: not listed separately
Experiment: Cytotoxicity against human MCF7 cells assessed as reduction in cell viability after 72 hrs by MTT assay
Assay type: functional, cell-based
Details: MCF7, 72 h

SMILES	IC50
Cc1c(C)c2c(c(C)c1O)CCC(C)(C(=O)O)O2 (centres undefined) [TROLOX]	> 300 µM

Test system: not listed separately
Experiment: Cytotoxicity against human RPMI8226 cells assessed as reduction in cell viability after 72 hrs by MTT assay
Assay type: functional, cell-based
Details: RPMI-8226, 72 h

SMILES	IC50
Cc1c(C)c2c(c(C)c1O)CCC(C)(C(=O)O)O2 (centres undefined) [TROLOX]	> 300 µM

Test system: not listed separately
Experiment: Cytotoxicity against human HepG2 cells assessed as reduction in cell viability after 72 hrs by MTT assay
Assay type: functional, cell-based
Details: HepG2, 72 h

SMILES	IC50
Cc1c(C)c2c(c(C)c1O)CCC(C)(C(=O)O)O2 (centres undefined) [TROLOX]	> 300 µM

Test system: not listed separately
Experiment: Cytotoxicity against human CEM13 cells assessed as reduction in cell viability after 72 hrs by MTT assay
Assay type: functional, cell-based
Details: CEM13, 72 h

SMILES	IC50
Cc1c(C)c2c(c(C)c1O)CCC(C)(C(=O)O)O2 (centres undefined) [TROLOX]	> 300 µM

Test system: not listed separately
Experiment: Cytotoxicity against human U937 cells assessed as reduction in cell viability after 72 hrs by MTT assay
Assay type: functional, cell-based
Details: U-937, 72 h

SMILES	IC50
Cc1c(C)c2c(c(C)c1O)CCC(C)(C(=O)O)O2 (centres undefined) [TROLOX]	300 µM

Test system: not listed separately
Experiment: Cytotoxicity against human MT4 cells assessed as reduction in cell viability after 72 hrs by MTT assay
Assay type: functional, cell-based
Details: MT4, 72 h

SMILES	IC50
Cc1c(C)c2c(c(C)c1O)CCC(C)(C(=O)O)O2 (centres undefined) [TROLOX]	200 µM

Test system: not listed separately
Experiment: Cytotoxicity against mouse LMTK cells assessed as reduction in cell viability after 72 hrs by MTT assay
Assay type: toxicity
Details: not given

SMILES	IC50 at 72 h
Cc1c(C)c2c(c(C)c1O)CCC(C)(C(=O)O)O2 (centres undefined) [TROLOX]	> 300 µM

Test system: not listed separately
Experiment: Cytotoxicity against hamster AG17-1 cells assessed as reduction in cell viability after 72 hrs by MTT assay
Assay type: toxicity, cell-based, Cricetulus griseus
Details: Chinese hamster

SMILES	IC50 at 72 h
Cc1c(C)c2c(c(C)c1O)CCC(C)(C(=O)O)O2 (centres undefined) [TROLOX]	> 300 µM

Test system: not listed separately
Experiment: Cytotoxicity against human MCF7 cells assessed as reduction in cell viability at 300 uM after 72 hrs by MTT assay
Assay type: functional
Details: MCF7, 72 h

SMILES	inhibition at 300 µM
Cc1c(C)c2c(c(C)c1O)CCC(C)(C(=O)O)O2 (centres undefined) [TROLOX]	5%

Test system: not listed separately
Experiment: Cytotoxicity against human RPMI8226 cells assessed as reduction in cell viability at 300 uM after 72 hrs by MTT assay
Assay type: functional
Details: RPMI-8226, 72 h

SMILES	inhibition at 300 µM
Cc1c(C)c2c(c(C)c1O)CCC(C)(C(=O)O)O2 (centres undefined) [TROLOX]	0%

Test system: not listed separately
Experiment: Cytotoxicity against human HepG2 cells assessed as reduction in cell viability at 300 uM after 72 hrs by MTT assay
Assay type: functional
Details: HepG2, 72 h

SMILES	inhibition at 300 µM
Cc1c(C)c2c(c(C)c1O)CCC(C)(C(=O)O)O2 (centres undefined) [TROLOX]	14%

Test system: not listed separately
Experiment: Cytotoxicity against human CEM13 cells assessed as reduction in cell viability at 300 uM after 72 hrs by MTT assay
Assay type: functional
Details: CEM13, 72 h

SMILES	inhibition at 300 µM
Cc1c(C)c2c(c(C)c1O)CCC(C)(C(=O)O)O2 (centres undefined) [TROLOX]	37%

Test system: not listed separately
Experiment: Cytotoxicity against mouse LMTK cells assessed as reduction in cell viability at 300 uM after 72 hrs by MTT assay
Assay type: toxicity
Details: read-out: INH

SMILES	cytotoxicity at 72 h, 300 µM
Cc1c(C)c2c(c(C)c1O)CCC(C)(C(=O)O)O2 (centres undefined) [TROLOX]	0%

Test system: not listed separately
Experiment: Cytotoxicity against hamster AG17-1 cells assessed as reduction in cell viability at 300 uM after 72 hrs by MTT assay
Assay type: toxicity, cell-based, Cricetulus griseus
Details: Chinese hamster, read-out: INH

SMILES	cytotoxicity at 72 h, 300 µM
Cc1c(C)c2c(c(C)c1O)CCC(C)(C(=O)O)O2 (centres undefined) [TROLOX]	0%
